According to patent publication US8329736B2, “Triazole compounds that modulate HSP90 activity” (Synta Pharmaceuticals, Corp., priority 2006, dated 2012):

Tested on: Her2
Assay: Degradation of Her2 in BT-474 cells, Western blot (Method 1)
Type: cell-based, human
Conditions: 0.5 μM, overnight
Procedure: Human high-Her2 breast carcinoma BT474 (HTB-20), SK-BR-3 (HTB-30) and MCF-7 breast carcinoma (HTB-22) from American Type Culture Collection, VA, USA were grown in Dulbecco's modified Eagle's medium with 4 mM L-glutamine and antibiotics (100 IU/ml penicillin and 100 ug/ml streptomycine; GibcoBRL). To obtain exponential cell growth, cells were trypsinized, counted and seeded at a cell density of 0.5×10^6 cells/ml regularly, every 3 days. All experiments were performed on day 1 after cell passage.
BT-474 cells are treated with 0.5 μM, 2 μM, or 5 μM of 17AAG (a positive control) or 0.5 μM, 2 μM, or 5 μM of a compound of the invention overnight in DMEM medium. After treatment, each cytoplasmic sample is prepared from 1×10^6 cells by incubation of cell lysis buffer (#9803, cell Signaling Technology) on ice for 10 minutes. The resulting supernatant used as the cytosol fractions is dissolved with sample buffer for SDS-PAGE and run on a SDS-PAGE gel, blotted onto a nitrocellulose membrane by using semi-dry transfer. Non-specific binding to nitrocellulose is blocked with 5% skim milk in TBS with 0.5% Tween at room temperature for 1 hour, then probed with anti-Her2/ErB2 mAb (rabbit IgG, #2242, Cell Signaling) and anti-Tubulin (T9026, Sigma) as housekeeping control protein. […]

In the case of `C=CCNC1=C2C[C@@H](C)C[C@H](OC)[C@H](O)[C@@H](C)/C=C(\C)[C@H](OC(N)=O)[C@@H](OC)/C=C\C=C(/C)C(=O)NC(=CC1=O)C2=O` [Compound 17AAG, 17-allylamino-17-demethoxygeldanamycin], the “degradation of Her2” value is reported as “partial degradation of Her2”.
